What all share (assay type): cell-based, human
In test [1] the test system is iPS cells: Tic (Np 39). The test is described as follows: Influences of feeder-free culture on iPS cells: Rac-1 inhibitor added. Conditions: Rac-1 inhibitor 100 or 150 μM at day 3 (FIG. 19: 150 μM), Synthemax Surface. The protocol: Synthemax Surface (trade name, manufactured by Corning Inc.) was used as a culture surface, and iPS cells were seeded thereover. The culture medium was exchanged with a maintenance medium every 24 hours until day 7. After the culture, the expression of Oct3/4 of the cultured cells was confirmed by immunocytostaining, and DAPI staining was performed. The used cells and media, as well as the culture conditions are as follows.
mTeSR (Trade Mark) 1 medium (trade name, manufactured by STEMCELL, Technologies)
Next, cells were cultured and observed in the same manner as those described above except that the Rac-1 inhibitor was added at 100 or 150 μM at three days after the start of the culture (day 3). Micrographs obtained are illustrated in FIG. 19. FIG. 19 illustrates micrographs obtained in the case where the Rac-1 inhibitor was 150 μM.

Test [2] deals with iPS cells. The test is described as follows: Rac-1 inhibitor added in culture on SNL feeder cells. Conditions: Rac-1 inhibitor 50 or 100 μM added at day 3, same as without inhibitor. The protocol:
Culture was performed by using SNL feeder cells as the feeder cells and adding the Rac-1 inhibitor (50 or 100 μM) at three days after the culture start (day 3).

For test [3], the system named is iPS cells: Tic (Np 39). The test is described as follows: Influences of feeder cells on iPS cells: Rac-1 inhibitor added in culture on MEF feeder cells. Conditions: Rac-1 inhibitor 50, 100, or 150 μM added at day 3, outer edge part without inhibitor. The protocol: On feeder cells, iPS cells were seeded, and the culture medium was exchanged with a maintenance medium every 24 hours until day 7. After the culture, the expression of Oct3/4 of the cultured cells was confirmed by immunocytostaining, and DAPI staining was performed. The used cells and media, as well as the culture conditions are as follows.
iPS cells: Repro Stem (trade name, manufactured by ReproCELL J, Inc.), 5 ng/mL FGF-2
Micrographs obtained are illustrated in FIG. 17.
Next, cells were cultured and observed in the same manners as those described above except that a Rac-1 inhibitor (trade name: NSC23766, Calbiochem brand), which is a migration inhibitor, was added at 50, 100, or 150 μM at three days after the start of the culture (day 3). The obtained micrographs are illustrated in FIG. 17.
Dilution of Rac-1 inhibitor: the Rac-1 inhibitor was diluted by using a medium (Repro Stem) (final concentration: 50 or 100 μM).
Further, bFGF (trade name, manufactured by ReproCELL, Inc., final concentration 5 ng/ml) was added thereto, and the Rac-1 inhibitor thus diluted was added to iPS cells.

Structures are written as SMILES.

On to `CCN(CC)CCCC(C)Nc1nc(C)cc(Nc2ccc3nc(C)cc(N)c3c2)n1` (racemic) [Rac-1 inhibitor], for which the results for the “Part of the colony where deviated cells emerge” value in test [1] and in test [3] were “allowed deviated cells to emerge in the center part of a colony” and “emerge in the center part of the colony”, respectively. In test [2], the “Part of the colony where deviated cells grew” value is “Deviated cells grew in the center part of a colony”.

The values are drawn from US9822344B2, “Method for culturing pluripotent stem cells” (OSAKA UNIVERSITY, priority 2012, dated 2017).
